Measured values as given in patent US6737383B1, “Herbicidal oxadiazolidines” (priority 1999, dated 2004).

Columns and labels:
smallflower flatsedge = assay: Test B flood test smallflower flatsedge; format: in vivo, Cyperus difformis
Outline: (§1)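 Each value is a visual injury score relative to controls, with 10 meaning complete control and 0 no effect. Evaluation took place twelve to sixteen days after the 2-leaf-stage plants were treated and kept in the greenhouse.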

wheat = assay: Test B pre/postemergence wheat; format: in vivo, Triticum aestivum; details: for Wheat plant response rating: scale of 0 to 10 where 0 is no effect and 10 is complete control
Outline: (§2)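 Response is a visual 0-to-10 score relative to untreated plants, where 0 means no effect and 10 means complete control, taken twelve to sixteen days after application. Treatments went onto soil at planting and onto foliage of 1- to 4-leaf plants, using a surfactant-containing non-phytotoxic solvent.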

corn = assay: Test B pre/postemergence corn; format: in vivo, Zea mays; details: for Corn plant response rating: scale of 0 to 10 where 0 is no effect and 10 is complete control
Outline: as §2

crabgrass = assay: Test B pre/postemergence crabgrass; format: in vivo, Digitaria sanguinalis; details: for Crabgrass plant response rating: scale of 0 to 10 where 0 is no effect and 10 is complete control
Outline: as §2

purple nutsedge = assay: Test B pre/postemergence purple nutsedge; format: in vivo, Cyperus rotundus; details: for Nutsedge plant response rating: scale of 0 to 10 where 0 is no effect and 10 is complete control
Outline: as §2

sugar beet = assay: Test B pre/postemergence sugar beet; format: in vivo, Beta vulgaris; details: for Sugarbeets plant response rating: scale of 0 to 10 where 0 is no effect and 10 is complete control
Outline: as §2

velvetleaf = assay: Test B pre/postemergence velvetleaf; format: in vivo, Abutilon theophrasti; details: for Velvetleaf plant response rating: scale of 0 to 10 where 0 is no effect and 10 is complete control
Outline: as §2

blackgrass = assay: Test B pre/postemergence blackgrass; format: in vivo, Alopecurus myosuroides; details: for Blackgrass plant response rating: scale of 0 to 10 where 0 is no effect and 10 is complete control
Outline: as §2

wild oat = assay: Test B pre/postemergence wild oat; format: in vivo, Avena fatua; details: for Wild oats plant response rating: scale of 0 to 10 where 0 is no effect and 10 is complete control
Outline: as §2

bamyardgrass = assay: Test B flood test barnyardgrass; format: in vivo, Echinochloa crus-galli
Outline: as §1

soybean = assay: Test B pre/postemergence soybean; format: in vivo, Glycine max; details: for Soybean plant response rating: scale of 0 to 10 where 0 is no effect and 10 is complete control
Outline: as §2

surinam grass = assay: Test B pre/postemergence surinam grass; format: in vivo, Brachiaria decumbens; details: for B. signalgrass plant response rating: scale of 0 to 10 where 0 is no effect and 10 is complete control
Outline: as §2

pigweed = assay: Test B pre/postemergence pigweed; format: in vivo, Amaranthus retroflexus; details: for Redroot pigweed plant response rating: scale of 0 to 10 where 0 is no effect and 10 is complete control
Outline: as §2

bedstraw = assay: Test B pre/postemergence bedstraw; format: in vivo, Galium aparine; details: Postemergence
Outline: as §2

cocklebur = assay: Test B pre/postemergence cocklebur; format: in vivo, Xanthium strumarium; details: for Cocklebur plant response rating: scale of 0 to 10 where 0 is no effect and 10 is complete control
Outline: as §2

rape = assay: Test B pre/postemergence rape; format: in vivo, Brassica napus; details: for Rape plant response rating: scale of 0 to 10 where 0 is no effect and 10 is complete control
Outline: as §2

[1] = Postemergence (flood test), Rate 125 g/ha, scale 0 to 10, 0 is no effect, 10 is complete control
[2] = Rate 62 g/ha, Postemergence (flood test species), scale of 0 to 10 where 0 is no effect and 10 is complete control
[3] = Rate 500 g/ha, listed under Postemergence (flood test species), scale 0 to 10, 0 no effect, 10 complete control
[4] = flood test species, listed under Postemergence, Rate 250 g/ha, scale 0 to 10, 0 is no effect, 10 is complete control
[5] = Postemergence, Rate 125 g/ha, scale 0 to 10, 0 is no effect, 10 is complete control
[6] = Postemergence, Rate 250 g/ha, scale 0 to 10, 0 is no effect, 10 is complete control
[7] = Preemergence, Rate 62 g/ha, scale 0 to 10 (0 no effect, 10 complete control)
[8] = Rate 500 g/ha, Postemergence, scale 0 to 10, 0 no effect, 10 complete control

Compound: CC(C)N(C(=O)n1oc(=O)n(C2(C)CC2)c1=O)c1ccccc1 [Compound 360]
- Plant response rating, S. Flatsedge (smallflower flatsedge; [1]): 4
- S. Flatsedge plant response rating (smallflower flatsedge; [2]): 2
- Plant response rating, S. Flatsedge (smallflower flatsedge; [3]): 8
- Plant response rating, S. Flatsedge (smallflower flatsedge; [4]): 4
- Plant response rating, Wheat (wheat; [5]): 4
- Plant response rating, Wheat (wheat; [6]): 4
- Plant response rating, Wheat (wheat; [7]): 3
- Wheat plant response rating (0 to 10 scale) (wheat; Preemergence, Rate 125 g/ha): 6
- Wheat plant response rating (wheat; Preemergence, Rate 250 g/ha): 7
- Wheat plant response rating (wheat; Preemergence, Rate 500 g/ha): 8
- Wheat plant response rating (wheat; Rate 62 g/ha, Postemergence): 3
- Plant response rating, Wheat (wheat; [8]): 6
- Plant response rating, Corn (corn; [5]): 2
- Plant response rating, Corn (corn; [6]): 6
- Plant response rating, Corn (corn; [7]): 0
- Corn plant response rating (0 to 10 scale) (corn; Preemergence, Rate 125 g/ha): 3
- Corn plant response rating (corn; Preemergence, Rate 250 g/ha): 4
- Corn plant response rating (corn; Preemergence, Rate 500 g/ha): 9
- Corn plant response rating (corn; Rate 62 g/ha, Postemergence): 2
- Plant response rating, Corn (corn; [8]): 7
- Plant response rating, Crabgrass (crabgrass; [5]): 2
- Plant response rating, Crabgrass (crabgrass; [6]): 5
- Plant response rating, Crabgrass (crabgrass; [7]): 9
- Crabgrass plant response rating (0 to 10 scale) (crabgrass; Preemergence, Rate 125 g/ha): 10
- Crabgrass plant response rating (crabgrass; Preemergence, Rate 250 g/ha): 10
- Crabgrass plant response rating (crabgrass; Preemergence, Rate 500 g/ha): 10
- Crabgrass plant response rating (crabgrass; Rate 62 g/ha, Postemergence): 2
- Plant response rating, Crabgrass (crabgrass; [8]): 5
- Plant response rating, Nutsedge (purple nutsedge; [5]): 0
- Plant response rating, Nutsedge (purple nutsedge; [6]): 2
- Plant response rating, Nutsedge (purple nutsedge; [7]): 0
- Nutsedge plant response rating (0 to 10 scale) (purple nutsedge; Preemergence, Rate 125 g/ha): 0
- Nutsedge plant response rating (purple nutsedge; Preemergence, Rate 250 g/ha): 0
- Nutsedge plant response rating (purple nutsedge; Preemergence, Rate 500 g/ha): 7
- Nutsedge plant response rating (purple nutsedge; Rate 62 g/ha, Postemergence): 0
- Plant response rating, Nutsedge (purple nutsedge; [8]): 4
- Plant response rating, Sugarbeets (sugar beet; [5]): 0
- Plant response rating, Sugarbeets (sugar beet; [6]): 2
- Plant response rating, Sugarbeets (sugar beet; [7]): 2
- Sugarbeets plant response rating (0 to 10 scale) (sugar beet; Preemergence, Rate 125 g/ha): 6
- Sugarbeets plant response rating (sugar beet; Preemergence, Rate 250 g/ha): 6
- Sugarbeets plant response rating (sugar beet; Preemergence, Rate 500 g/ha): 7
- Sugarbeets plant response rating (sugar beet; Rate 62 g/ha, Postemergence): 0
- Plant response rating, Sugarbeets (sugar beet; [8]): 7
- Plant response rating, Velvetleaf (velvetleaf; [5]): 0
- Plant response rating, Velvetleaf (velvetleaf; [6]): 0
- Plant response rating, Velvetleaf (velvetleaf; [7]): 3
- Velvetleaf plant response rating (0 to 10 scale) (velvetleaf; Preemergence, Rate 125 g/ha): 6
- Velvetleaf plant response rating (velvetleaf; Preemergence, Rate 250 g/ha): 7
- Velvetleaf plant response rating (velvetleaf; Preemergence, Rate 500 g/ha): 7
- Velvetleaf plant response rating (velvetleaf; Rate 62 g/ha, Postemergence): 0
- Plant response rating, Velvetleaf (velvetleaf; [8]): 4
- Plant response rating, Blackgrass (blackgrass; [5]): 5
- Plant response rating, Blackgrass (blackgrass; [6]): 6
- Plant response rating, Blackgrass (blackgrass; [7]): 9
- Blackgrass plant response rating (0 to 10 scale) (blackgrass; Preemergence, Rate 125 g/ha): 9
- Blackgrass plant response rating (blackgrass; Preemergence, Rate 250 g/ha): 9
- Blackgrass plant response rating (blackgrass; Preemergence, Rate 500 g/ha): 10
- Blackgrass plant response rating (blackgrass; Rate 62 g/ha, Postemergence): 5
- Plant response rating, Blackgrass (blackgrass; [8]): 7
- Plant response rating, Wild oats (wild oat; [5]): 3
- Plant response rating, Wild oats (wild oat; [6]): 3
- Plant response rating, Wild oats (wild oat; [7]): 3
- Wild oats plant response rating (0 to 10 scale) (wild oat; Preemergence, Rate 125 g/ha): 10
- Wild oats plant response rating (wild oat; Preemergence, Rate 250 g/ha): 10
- Wild oats plant response rating (wild oat; Preemergence, Rate 500 g/ha): 10
- Wild oats plant response rating (wild oat; Rate 62 g/ha, Postemergence): 3
- Plant response rating, Wild oats (wild oat; [8]): 5
- Plant response rating, Barnyardgrass (bamyardgrass; [1]): 2
- Barnyardgrass plant response rating (bamyardgrass; [2]): 2
- Plant response rating, Barnyardgrass (bamyardgrass; [3]): 7
- Plant response rating, Barnyardgrass (bamyardgrass; [4]): 6
- Plant response rating, Soybean (soybean; [5]): 2
- Plant response rating, Soybean (soybean; [6]): 2
- Plant response rating, Soybean (soybean; [7]): 0
- Soybean plant response rating (0 to 10 scale) (soybean; Preemergence, Rate 125 g/ha): 0
- Soybean plant response rating (soybean; Preemergence, Rate 250 g/ha): 0
- Soybean plant response rating (soybean; Preemergence, Rate 500 g/ha): 5
- Soybean plant response rating (soybean; Rate 62 g/ha, Postemergence): 1
- Plant response rating, Soybean (soybean; [8]): 3
- Plant response rating, B. signalgrass (surinam grass; [5]): 0
- Plant response rating, B. signalgrass (surinam grass; [6]): 5
- Plant response rating, B. signalgrass (surinam grass; [7]): 5
- B. signalgrass plant response rating (0 to 10 scale, 0 is no effect, 10 is complete control) (surinam grass; Preemergence, Rate 125 g/ha): 6
- B. signalgrass plant response rating (surinam grass; Preemergence, Rate 250 g/ha): 7
- B. signalgrass plant response rating (surinam grass; Preemergence, Rate 500 g/ha): 7
- B. signalgrass plant response rating (surinam grass; Rate 62 g/ha, Postemergence): 0
- Plant response rating, B. signalgrass (surinam grass; [8]): 7
- Plant response rating, Redroot pigweed (pigweed; [5]): 0
- Plant response rating, Redroot pigweed (pigweed; [6]): 3
- Plant response rating, Redroot pigweed (pigweed; [7]): 5
- Redroot pigweed plant response rating (0 to 10 scale) (pigweed; Preemergence, Rate 125 g/ha): 5
- Redroot pigweed plant response rating (pigweed; Preemergence, Rate 250 g/ha): 10
- Redroot pigweed plant response rating (pigweed; Preemergence, Rate 500 g/ha): 10
- Redroot pigweed plant response rating (pigweed; Rate 62 g/ha, Postemergence): 0
- Plant response rating, Redroot pigweed (pigweed; [8]): 6
- Plant response rating, Bedstraw (bedstraw; Rate 125 g/ha, scale 0 to 10, 0 is no effect, 10 is complete control): 0
- Plant response rating, Bedstraw (bedstraw; Rate 250 g/ha, scale 0 to 10, 0 is no effect, 10 is complete control): 2
- Bedstraw plant response rating (bedstraw; Rate 62 g/ha, scale of 0 to 10 where 0 is no effect and 10 is complete control): 0
- Plant response rating, Bedstraw (bedstraw; Rate 500 g/ha, scale 0 to 10, 0 no effect, 10 complete control): 4
- Plant response rating, Cocklebur (cocklebur; [5]): 0
- Plant response rating, Cocklebur (cocklebur; [6]): 0
- Plant response rating, Cocklebur (cocklebur; [7]): 0
- Cocklebur plant response rating (0 to 10 scale) (cocklebur; Preemergence, Rate 125 g/ha): 0
- Cocklebur plant response rating (cocklebur; Preemergence, Rate 500 g/ha): 0
- Cocklebur plant response rating (cocklebur; Rate 62 g/ha, Postemergence): 0
- Plant response rating, Cocklebur (cocklebur; [8]): 0
- Plant response rating, Rape (rape; [5]): 0
- Plant response rating, Rape (rape; [6]): 0
- Plant response rating, Rape (rape; [7]): 0
- Rape plant response rating (0 to 10 scale) (rape; Preemergence, Rate 125 g/ha): 0
- Rape plant response rating (rape; Preemergence, Rate 250 g/ha): 0
- Rape plant response rating (rape; Preemergence, Rate 500 g/ha): 0
- Rape plant response rating (rape; Rate 62 g/ha, Postemergence): 0
- Plant response rating, Rape (rape; [8]): 0
